In ChEMBL document CHEMBL1201861, “Genomics of Drug Sensitity in Cancer screening data, Wellcome Trust Sanger Institute”:

Experiments:
Experiment in all cases: cells
[1] = system: AGS; assay type: functional, cell-based; conditions: Homo sapiens;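 note: growth inhibition of AGS cells, determined with a cell viability assay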
Description: SANGER: Inhibition of human AGS cell growth in a cell viability assay.

[2] = system: A-427; assay type: functional, cell-based; conditions: Homo sapiens;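 note: growth inhibition of human A-427 cells, read out by a cell viability assay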
Description: SANGER: Inhibition of human A427 cell growth in a cell viability assay.

[3] = system: MHH-ES-1; assay type: functional, cell-based; conditions: Homo sapiens;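 note: cell growth inhibition measured by a cell viability assay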
Description: SANGER: Inhibition of human MHH-ES-1 cell growth in a cell viability assay.

[4] = system: HTC-C3; assay type: functional, cell-based; conditions: Homo sapiens;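 note: inhibition of cell growth, read out with a cell viability assay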
Description: SANGER: Inhibition of human HTC-C3 cell growth in a cell viability assay.

[5] = system: OE33; assay type: functional, cell-based; conditions: Homo sapiens;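 note: growth inhibition of human OE33 cells, measured by a cell viability assay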
Description: SANGER: Inhibition of human OE33 cell growth in a cell viability assay.

[6] = system: KOSC-2; assay type: functional, cell-based; conditions: Homo sapiens;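 note: growth inhibition of KOSC-2 cells, read out by a cell viability assay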
Description: SANGER: Inhibition of human KOSC-2 cell growth in a cell viability assay.

[7] = system: HSC-4; assay type: functional, cell-based; conditions: Homo sapiens;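 note: growth inhibition of human HSC-4 cells, read out with a cell viability assay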
Description: SANGER: Inhibition of human HSC-4 cell growth in a cell viability assay.

[8] = system: COLO-678; assay type: functional, cell-based; conditions: Homo sapiens
Description: SANGER: Inhibition of human COLO-678 cell growth in a cell viability assay.

[9] = system: NCI-H1693; assay type: functional, cell-based; conditions: Homo sapiens;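 note: growth inhibition of the human cell line, read out with a cell viability assay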
Description: SANGER: Inhibition of human NCI-H1693 cell growth in a cell viability assay.

[10] = system: EFO-27; assay type: functional, cell-based; conditions: Homo sapiens;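 note: growth inhibition of EFO-27 cells, read out with a cell viability assay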
Description: SANGER: Inhibition of human EFO-27 cell growth in a cell viability assay.

[11] = system: MKN-28; assay type: functional, cell-based; conditions: Homo sapiens;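 note: cell viability assay read-out, IC50 reflects suppression of growth of human MKN-28 cells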
Description: SANGER: Inhibition of human MKN28 cell growth in a cell viability assay.

[12] = system: A673; assay type: functional, cell-based; conditions: Homo sapiens;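 note: growth inhibition of human A673 cells, read out through a cell viability assay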
Description: SANGER: Inhibition of human A673 cell growth in a cell viability assay.

[13] = system: SKG-IIIa; assay type: functional, cell-based; conditions: Homo sapiens;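 note: cell growth inhibition, read out with a cell viability assay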
Description: SANGER: Inhibition of human SKG-IIIa cell growth in a cell viability assay.

[14] = system: NCI-H2342; assay type: functional, cell-based; conditions: Homo sapiens;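 note: growth inhibition of the cancer cell line, determined with a cell viability assay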
Description: SANGER: Inhibition of human NCI-H2342 cell growth in a cell viability assay.

[15] = system: MEL-HO; assay type: functional, cell-based; conditions: Homo sapiens
Description: SANGER: Inhibition of human MEL-HO cell growth in a cell viability assay.

[16] = system: UO-31; assay type: functional, cell-based; conditions: Homo sapiens;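 note: cell viability assay measuring inhibition of cell growth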
Description: SANGER: Inhibition of human U031 cell growth in a cell viability assay.

[17] = system: SN12C; assay type: functional, cell-based; conditions: Homo sapiens;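 note: growth inhibition of human SN12C cells, measured by a cell viability assay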
Description: SANGER: Inhibition of human SN12C cell growth in a cell viability assay.

[18] = system: HT55; assay type: functional, cell-based; conditions: Homo sapiens;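 note: cell viability readout measuring growth inhibition of human HT55 cells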
Description: SANGER: Inhibition of human HT55 cell growth in a cell viability assay.

[19] = system: NCI-H596; assay type: functional, cell-based; conditions: Homo sapiens;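 note: growth inhibition of NCI-H596 cells, read out with a cell viability assay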
Description: SANGER: Inhibition of human NCI-H596 cell growth in a cell viability assay.

[20] = system: EW-22; assay type: functional, cell-based; conditions: Homo sapiens;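 note: growth inhibition of the EW-22 cell line, measured with a cell viability readout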
Description: SANGER: Inhibition of human EW-22 cell growth in a cell viability assay.

[21] = system: LN-405; assay type: functional, cell-based; conditions: Homo sapiens
Description: SANGER: Inhibition of human LN-405 cell growth in a cell viability assay.

[22] = system: Detroit 562; assay type: functional, cell-based; conditions: Homo sapiens;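 note: growth inhibition of human Detroit 562 cells, read out by a cell viability assay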
Description: SANGER: Inhibition of human Detroit562 cell growth in a cell viability assay.

[23] = system: HGC-27; assay type: functional, cell-based; conditions: Homo sapiens;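 note: growth inhibition of human HGC-27 cells, read out in a cell viability assay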
Description: SANGER: Inhibition of human HGC-27 cell growth in a cell viability assay.

[24] = system: D-392MG; assay type: functional, cell-based; conditions: Homo sapiens
[25] = system: NCI-H510A; assay type: functional, cell-based, Homo sapiens; conditions: Homo sapiens, NCI-H510A;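 note: growth inhibition of NCI-H510A cells, read out with a cell viability assay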
Description: SANGER: Inhibition of human NCI-H510A cell growth in a cell viability assay.

[26] = system: LCLC-103H cell line; assay type: functional, cell-based; conditions: Homo sapiens
Description: SANGER: Inhibition of human LCLC-103H cell growth in a cell viability assay.

[27] = system: MDA-MB-453; assay type: functional, cell-based; conditions: Homo sapiens
Description: SANGER: Inhibition of human MDA-MB-453 cell growth in a cell viability assay.

[28] = system: HN; assay type: functional, cell-based; conditions: Homo sapiens
Description: SANGER: Inhibition of human HN cell growth in a cell viability assay.

[29] = system: SW48; assay type: functional, cell-based; conditions: Homo sapiens;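 note: growth inhibition of SW48 cells, read out with a cell viability assay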
Description: SANGER: Inhibition of human SW48 cell growth in a cell viability assay.

[30] = system: ESS-1; assay type: functional, cell-based; conditions: Homo sapiens;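 note: growth inhibition of human ESS-1 cells, read out by a cell viability assay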
Description: SANGER: Inhibition of human ESS-1 cell growth in a cell viability assay.

[31] = system: IGR-1; assay type: functional, cell-based; conditions: Homo sapiens;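 note: growth inhibition of human IGR-1 cells, read out with a cell viability assay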
Description: SANGER: Inhibition of human IGR-1 cell growth in a cell viability assay.

[32] = system: CWR22R; assay type: functional, cell-based; conditions: Homo sapiens, 22Rv1;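 note: growth inhibition of 22Rv1 cells, read out with a cell viability assay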
Description: SANGER: Inhibition of human 22RV1 cell growth in a cell viability assay.

[33] = system: G-402; assay type: functional, cell-based; conditions: Homo sapiens
Description: SANGER: Inhibition of human G-402 cell growth in a cell viability assay.

[34] = system: DU-145; assay type: functional, cell-based; conditions: Homo sapiens
Description: SANGER: Inhibition of human DU-145 cell growth in a cell viability assay.

[35] = system: HCT-116; assay type: functional, cell-based; conditions: Homo sapiens
Description: SANGER: Inhibition of human HCT-116 cell growth in a cell viability assay.

[36] = system: SJRH30; assay type: functional, cell-based; conditions: Homo sapiens;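 note: growth inhibition of human SJRH30 cells, read out with a cell viability assay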
Description: SANGER: Inhibition of human SJRH30 cell growth in a cell viability assay.

[37] = system: KP-N-YN; assay type: functional, cell-based; conditions: Homo sapiens;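 note: growth inhibition of KP-N-YN cells, read out with a cell viability assay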
Description: SANGER: Inhibition of human KP-N-YN cell growth in a cell viability assay.

[38] = system: TCC-SUP; assay type: functional, cell-based; conditions: Homo sapiens;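 note: growth inhibition of TCC-SUP cells, read out with a cell viability assay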
Description: SANGER: Inhibition of human TCCSUP cell growth in a cell viability assay.

[39] = system: EGI-1; assay type: functional, cell-based; conditions: Homo sapiens;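 note: cell viability readout used to gauge growth inhibition of EGI-1 cells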
Description: SANGER: Inhibition of human EGI-1 cell growth in a cell viability assay.

[40] = system: MCF7; assay type: functional, cell-based; conditions: Homo sapiens;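 note: growth inhibition of human MCF7 cells, read out with a cell viability assay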
Description: SANGER: Inhibition of human MCF7 cell growth in a cell viability assay.

[41] = system: RPMI-7951; assay type: functional, cell-based; conditions: Homo sapiens
Description: SANGER: Inhibition of human RPMI-7951 cell growth in a cell viability assay.

[42] = system: MFE-280; assay type: functional, cell-based; conditions: Homo sapiens;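 note: growth inhibition of MFE-280 cells, determined with a cell viability readout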
Description: SANGER: Inhibition of human MFE-280 cell growth in a cell viability assay.

[43] = system: LCLC-97TM1; assay type: functional, cell-based; conditions: Homo sapiens;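 note: cell viability assay measuring growth inhibition of human LCLC-97TM1 cells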
Description: SANGER: Inhibition of human LCLC-97TM1 cell growth in a cell viability assay.

[44] = system: SK-MEL-24; assay type: functional, cell-based; conditions: Homo sapiens;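 note: growth inhibition read out by a cell viability assay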
Description: SANGER: Inhibition of human SK-MEL-24 cell growth in a cell viability assay.

[45] = system: Capan-2; assay type: functional, cell-based; conditions: Homo sapiens;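 note: Capan-2 cell growth inhibition, read out with a viability assay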
Description: SANGER: Inhibition of human Capan-2 cell growth in a cell viability assay.

[46] = system: SW1783; assay type: functional, cell-based; conditions: Homo sapiens;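 note: cell growth inhibition measured with a viability assay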
Description: SANGER: Inhibition of human SW1783 cell growth in a cell viability assay.

[47] = system: 23132-87; assay type: functional, cell-based; conditions: Homo sapiens
Description: SANGER: Inhibition of human 23132-87 cell growth in a cell viability assay.

[48] = system: UACC-893; assay type: functional, cell-based; conditions: Homo sapiens
Description: SANGER: Inhibition of human UACC-893 cell growth in a cell viability assay.

[49] = system: KMOE-2; assay type: functional, cell-based, Homo sapiens; conditions: Homo sapiens, KMOE-2;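 note: growth inhibition of human KMOE-2 cells, read out with a cell viability assay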
Description: SANGER: Inhibition of human KMOE-2 cell growth in a cell viability assay.

[50] = system: ME-180; assay type: functional, cell-based; conditions: Homo sapiens;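 note: cell viability assay measuring growth inhibition of ME-180 cells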
Description: SANGER: Inhibition of human ME-180 cell growth in a cell viability assay.

## CN(NC(=O)CC(=O)NN(C)C(=S)c1ccccc1)C(=S)c1ccccc1 [ELESCLOMOL]
[1]
  IC50: 2.86 nM
[2]
  IC50: 6.07 nM
[3]
  IC50: 5.69 nM
[4]
  IC50: 30.4 nM
[5]
  IC50: > 200 nM
[6]
  IC50: 5.45 nM
[7]
  IC50: 4.8 nM
[8]
  IC50: 42.5 nM
[9]
  IC50: 9.09 nM
[10]
  IC50: 7.72 nM
[11]
  IC50: 14 nM
[12]
  IC50: 11.6 nM
[13]
  IC50: 49.8 nM
[14]
  IC50: 43.3 nM
[15]
  IC50: > 200 nM
[16]
  IC50: 13.4 nM
[17]
  IC50: 28.4 nM
[18]
  IC50: > 200 nM
[19]
  IC50: 44.8 nM
[20]
  IC50: 74.7 nM
[21]
  IC50: 87.8 nM
[22]
  IC50: 68.9 nM
[23]
  IC50: 7.59 nM
[24]
  IC50: 78.7 nM
[25]
  IC50: 12.4 nM
[26]
  IC50: > 200 nM
[27]
  IC50: 34.7 nM
[28]
  IC50: 15.4 nM
[29]
  IC50: 108 nM
[30]
  IC50: 102 nM
[31]
  IC50: > 200 nM
[32]
  IC50: 11.3 nM
[33]
  IC50: 16.2 nM
[34]
  IC50: > 200 nM
[35]
  IC50: 40 nM
[36]
  IC50: 100 nM
[37]
  IC50: 65.6 nM
[38]
  IC50: 13.5 nM
[39]
  IC50: 8.38 nM
[40]
  IC50: 31.4 nM
[41]
  IC50: 36.6 nM
[42]
  IC50: > 200 nM
[43]
  IC50: > 200 nM
[44]
  IC50: > 200 nM
[45]
  IC50: > 200 nM
[46]
  IC50: 139 nM
[47]
  IC50: 24.9 nM
[48]
  IC50: > 200 nM
[49]
  IC50: 145 nM
[50]
  IC50: 16.2 nM

## NC(=O)c1ccc(N(C(N)=O)c2c(F)cccc2F)nc1-c1ccc(F)cc1F [VX-702]
[1]
  IC50: 153 nM
[2]
  IC50: > 2000 nM
[3]
  IC50: > 2000 nM
[4]
  IC50: > 2000 nM
[5]
  IC50: > 2000 nM
[6]
  IC50: > 2000 nM
[7]
  IC50: > 2000 nM
[8]
  IC50: > 2000 nM
[9]
  IC50: > 2000 nM
[10]
  IC50: > 2000 nM
[11]
  IC50: > 2000 nM
[12]
  IC50: > 2000 nM
[13]
  IC50: > 2000 nM
[14]
  IC50: > 2000 nM
[15]
  IC50: > 2000 nM
[16]
  IC50: > 2000 nM
[17]
  IC50: > 2000 nM
[18]
  IC50: > 2000 nM
[19]
  IC50: > 2000 nM
[20]
  IC50: > 2000 nM
[21]
  IC50: > 2000 nM
[22]
  IC50: > 2000 nM
[23]
  IC50: > 2000 nM
[24]
  IC50: > 2000 nM
[25]
  IC50: > 2000 nM
[26]
  IC50: > 2000 nM
[27]
  IC50: > 2000 nM
[28]
  IC50: > 2000 nM
[29]
  IC50: > 2000 nM
[30]
  IC50: > 2000 nM
[31]
  IC50: > 2000 nM
[32]
  IC50: > 2000 nM
[33]
  IC50: > 2000 nM
[34]
  IC50: 146 nM
[35]
  IC50: > 2000 nM
[36]
  IC50: > 2000 nM
[37]
  IC50: > 2000 nM
[38]
  IC50: > 2000 nM
[39]
  IC50: > 2000 nM
[40]
  IC50: > 2000 nM
[41]
  IC50: > 2000 nM
[42]
  IC50: > 2000 nM
[43]
  IC50: > 2000 nM
[44]
  IC50: > 2000 nM
[45]
  IC50: > 2000 nM
[46]
  IC50: > 2000 nM
[47]
  IC50: > 2000 nM
[48]
  IC50: > 2000 nM
[49]
  IC50: > 2000 nM
[50]
  IC50: > 2000 nM

## NC(=O)Nc1cc(-c2cccc(F)c2)sc1C(=O)N[C@H]1CCCNC1 [AZD-7762]
[1]
  IC50: 582 nM
[2]
  IC50: 198 nM
[3]
  IC50: > 2000 nM
[4]
  IC50: 835 nM
[5]
  IC50: 391 nM
[6]
  IC50: 247 nM
[7]
  IC50: 106 nM
[8]
  IC50: > 2000 nM
[9]
  IC50: 1230 nM
[10]
  IC50: 430 nM
[11]
  IC50: > 2000 nM
[12]
  IC50: 865 nM
[13]
  IC50: 650 nM
[14]
  IC50: > 2000 nM
[15]
  IC50: 979 nM
[16]
  IC50: 482 nM
[17]
  IC50: 1120 nM
[18]
  IC50: 1610 nM
[19]
  IC50: > 2000 nM
[20]
  IC50: 584 nM
[21]
  IC50: 877 nM
[22]
  IC50: 333 nM
[23]
  IC50: 491 nM
[24]
  IC50: 456 nM
[25]
  IC50: 246 nM
[26]
  IC50: 980 nM
[27]
  IC50: > 2000 nM
[28]
  IC50: 846 nM
[29]
  IC50: 792 nM
[30]
  IC50: 164 nM
[31]
  IC50: > 2000 nM
[32]
  IC50: 1810 nM
[33]
  IC50: 64.6 nM
[34]
  IC50: > 2000 nM
[35]
  IC50: 1420 nM
[37]
  IC50: 349 nM
[38]
  IC50: > 2000 nM
[39]
  IC50: 1800 nM
[40]
  IC50: > 2000 nM
[41]
  IC50: 231 nM
[42]
  IC50: > 2000 nM
[43]
  IC50: 316 nM
[44]
  IC50: > 2000 nM
[45]
  IC50: > 2000 nM
[46]
  IC50: 933 nM
[47]
  IC50: 683 nM
[48]
  IC50: > 2000 nM
[49]
  IC50: 1110 nM
[50]
  IC50: 1720 nM

## CC1=C(/C=C/C(C)=C/C=C/C(C)=C/C(=O)O)C(C)(C)CCC1 [TRETINOIN]
[1]
  IC50: > 10000 nM
[2]
  IC50: > 10000 nM
[3]
  IC50: > 10000 nM
[4]
  IC50: > 10000 nM
[5]
  IC50: > 10000 nM
[6]
  IC50: > 10000 nM
[7]
  IC50: > 10000 nM
[8]
  IC50: > 10000 nM
[9]
  IC50: > 10000 nM
[10]
  IC50: > 10000 nM
[11]
  IC50: > 10000 nM
[12]
  IC50: > 10000 nM
[13]
  IC50: > 10000 nM
[14]
  IC50: > 10000 nM
[15]
  IC50: > 10000 nM
[16]
  IC50: > 10000 nM
[17]
  IC50: > 10000 nM
[18]
  IC50: > 10000 nM
[19]
  IC50: > 10000 nM
[20]
  IC50: > 10000 nM
[21]
  IC50: > 10000 nM
[22]
  IC50: > 10000 nM
[23]
  IC50: > 10000 nM
[24]
  IC50: > 10000 nM
[25]
  IC50: > 10000 nM
[26]
  IC50: > 10000 nM
[27]
  IC50: > 10000 nM
[28]
  IC50: > 10000 nM
[29]
  IC50: > 10000 nM
[30]
  IC50: > 10000 nM
[31]
  IC50: > 10000 nM
[32]
  IC50: > 10000 nM
[33]
  IC50: > 10000 nM
[34]
  IC50: > 10000 nM
[35]
  IC50: > 10000 nM
[36]
  IC50: > 10000 nM
[37]
  IC50: > 10000 nM
[38]
  IC50: > 10000 nM
[39]
  IC50: > 10000 nM
[40]
  IC50: > 10000 nM
[41]
  IC50: > 10000 nM
[42]
  IC50: > 10000 nM
[43]
  IC50: > 10000 nM
[44]
  IC50: > 10000 nM
[45]
  IC50: > 10000 nM
[46]
  IC50: > 10000 nM
[47]
  IC50: > 10000 nM
[48]
  IC50: > 10000 nM
[49]
  IC50: > 10000 nM
[50]
  IC50: > 10000 nM
